Experiments:
[1] = system: kale 'Red Russian'; experiment: Visual injury of kale after insecticide, fungicide, PGRs, safeners (Example 4)
Procedure: (§1) Greenhouse and laboratory studies were conducted to ascertain the tolerance and nutritional quality differences following postemergence applications of the insecticide chlorpyrifos, the fungicide chlorothalonil, the PGRs mepiquat-chloride and paclobutrazol, and the safeners napthalic anhydride and isoxadifen-ethyl on kale ‘Red Russian’ and basil ‘Genovese’. Visual injury was rated based on general phytotoxicity, chlorosis, and visual stunting and each measurement was based on a percent scale from 0 to 100 where 0 equals no visual response and 100 equals complete plant death. Kale and basil were both harvested approximately 4 weeks after treatments and plants were pooled over replicates for content analysis of crude protein, crude amino acid content, acid detergent fiber, neutral detergent fiber, total fatty acids, and/or key mineral content (including Na, Ca, P, Mg, K, Fe, Mn, Zn, and Cu). In addition, the amounts of key individual amino acids (aspartic acid, threonine, glutamic acid, proline, glycine, cysteine, valine, leucine, isoleucine, methionine, and lysine) and composite classifications of fatty acid (saturated fatty acids, monounsaturated fatty acids, polyunsaturated fatty acids) were also analyzed from these sub-samples for kale (Tables 10-14).

[2] = system: basil 'Genovese'; experiment: Visual injury of basil after insecticide, fungicide, PGRs, safeners (Example 4)
Procedure: as §1

[3] = system: kale 'Red Russian'; experiment: Content analysis of kale: protein, amino acids, fiber, fatty acids, minerals (Example 4, Tables 12-14); assay type: in vivo; conditions: 28 DA-A; for Alanine, Percent Increase over the Untreated Check (on a % dry matter basis) / Aspartic acid, Percent Increase over the Untreated Check (on a % dry matter basis) / Cysteine, Percent Increase over the Untreated Check (on a % dry matter basis) / Glutamic acid, Percent Increase over the Untreated Check (on a % dry matter basis) / Glycine, Percent Increase over the Untreated Check (on a % dry matter basis) / Iso-leucine, Percent Increase over the Untreated Check (on a % dry matter basis) / Leucine, Percent Increase over the Untreated Check (on a % dry matter basis) / Lysine, Percent Increase over the Untreated Check (on a % dry matter basis) / Methionine, Percent Increase over the Untreated Check (on a % dry matter basis) / Proline, Percent Increase over the Untreated Check (on a % dry matter basis) / Threonine, Percent Increase over the Untreated Check (on a % dry matter basis) / Total Amino acids, Percent Increase over the Untreated Check (on a % dry matter basis) / Total Protein, Percent Increase over the Untreated Check (on a % dry matter basis) / Valine, Percent Increase over the Untreated Check (on a % dry matter basis): chlorothalonil ###
Procedure: as §1

[4] = system: basil 'Genovese'; experiment: Content analysis of basil: protein, minerals (Example 4, Tables 10-11); assay type: in vivo; conditions: 28 DA-A, rates g ai/ha: chlropyrifos 1120, chlorothalonil 2630, paclobutrazol 3.23, mepiquat-chloride 12.3, Isoxadifen 8, Napthalic anhydride 264, + NIS 0.25 % v/v
Method in brief: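 Plants were harvested about 4 weeks post-treatment and pooled across replicates to analyse protein, amino acids, fiber, fatty acids and minerals (Na, Ca, P, Mg, K, Fe, Mn, Zn, Cu). Treatments were postemergence insecticide, fungicide, PGRs and safeners. Visual injury scored 0–100% (phytotoxicity, chlorosis, stunting).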

[5] = system: basil ‘Genovese’; experiment: Yield, fresh weight of basil after insecticide, fungicide, PGRs and safeners (Example 4, Table 10); assay type: in vivo; conditions: DA-A, check 31.8
Procedure: as §1

[6] = system: kale ‘Red Russian’; experiment: Yield, fresh weight of kale after insecticide, fungicide and PGRs (Example 4, Table 12); assay type: in vivo; conditions: 28 DA-A, Untreated Check 106.9
Procedure: as §1

[7] = 7 DA-A, rates g ai/ha: chlropyrifos 1120, chlorothalonil 2630, paclobutrazol 3.23, mepiquat-chloride 12.3, + NIS 0.25 % v/v
[8] = 7 DA-A, rates g ai/ha: chlropyrifos 3370, chlorothalonil 7900, paclobutrazol 9.7, mepiquat-chloride 37, + NIS 0.25 % v/v
[9] = 14 DA-A, rates g ai/ha: chlropyrifos 1120, chlorothalonil 2630, paclobutrazol 3.23, mepiquat-chloride 12.3, + NIS 0.25 % v/v
[10] = 14 DA-A, rates g ai/ha: chlropyrifos 3370, chlorothalonil 7900, paclobutrazol 9.7, mepiquat-chloride 37, + NIS 0.25 % v/v
[11] = 28 DA-A, rates g ai/ha: chlropyrifos 1120, chlorothalonil 2630, paclobutrazol 3.23, mepiquat-chloride 12.3, + NIS 0.25 % v/v
[12] = 28 DA-A, rates g ai/ha: chlropyrifos 3370, chlorothalonil 7900, paclobutrazol 9.7, mepiquat-chloride 37, + NIS 0.25 % v/v
[13] = 7 DA-A, rates g ai/ha: chlropyrifos 1120, chlorothalonil 2630, paclobutrazol 3.23, mepiquat-chloride 12.3, Isoxadifen 8, Napthalic anhydride 264, + NIS 0.25 % v/v
[14] = 7 DA-A, rates g ai/ha: chlropyrifos 3370, chlorothalonil 7900, paclobutrazol 9.7, mepiquat-chloride 37, Isoxadifen 16, Napthalic anhydride 527, + NIS 0.25 % v/v
[15] = 14 DA-A, rates g ai/ha: chlropyrifos 1120, chlorothalonil 2630, paclobutrazol 3.23, mepiquat-chloride 12.3, Isoxadifen 8, Napthalic anhydride 264, + NIS 0.25 % v/v
[16] = 14 DA-A, rates g ai/ha: chlropyrifos 3370, chlorothalonil 7900, paclobutrazol 9.7, mepiquat-chloride 37, Isoxadifen 16, Napthalic anhydride 527, + NIS 0.25 % v/v
[17] = 28 DA-A, rates g ai/ha: chlropyrifos 1120, chlorothalonil 2630, paclobutrazol 3.23, mepiquat-chloride 12.3, Isoxadifen 8, Napthalic anhydride 264, + NIS 0.25 % v/v
[18] = 28 DA-A, rates g ai/ha: chlropyrifos 3370, chlorothalonil 7900, paclobutrazol 9.7, mepiquat-chloride 37, Isoxadifen 16, Napthalic anhydride 527, + NIS 0.25 % v/v
[19] = first-listed rate g ai/ha: chlropyrifos ###, paclobutrazol 3.2, mepiquat-chloride 12, + NIS 0.3 % v/v
[20] = rates g ai/ha: chlropyrifos 1120, chlorothalonil 2630, paclobutrazol 3.23, mepiquat-chloride 12.3, + NIS 0.25 % v/v
[21] = rates g ai/ha: chlropyrifos 3370, chlorothalonil 7900, paclobutrazol 9.7, mepiquat-chloride 37, + NIS 0.25 % v/v
[22] = second-listed rate g ai/ha: chlropyrifos ###, paclobutrazol 9.7, mepiquat-chloride 37, + NIS 0.3 % v/v

CCOP(=S)(OCC)Oc1nc(Cl)c(Cl)cc1Cl [chlropyrifos]
Phytotoxicity Chlorosis [1, 7]: 1%
Phytotoxicity General [1, 7]: 14%
Phytotoxicity Stunting [1, 7]: 9%
Phytotoxicity Chlorosis [1, 8]: 0%
Phytotoxicity General [1, 8]: 13%
Phytotoxicity Stunting [1, 8]: 6%
Phytotoxicity Chlorosis [1, 9]: 15%
Phytotoxicity General [1, 9]: 4%
Phytotoxicity Stunting [1, 9]: 9%
Phytotoxicity Chlorosis [1, 10]: 13%
Phytotoxicity General [1, 10]: 5%
Phytotoxicity Stunting [1, 10]: 10%
Phytotoxicity Chlorosis [1, 11]: 6%
Phytotoxicity General [1, 11]: 4%
Phytotoxicity Stunting [1, 11]: 8%
Phytotoxicity Chlorosis [1, 12]: 3%
Phytotoxicity General [1, 12]: 3%
Phytotoxicity Stunting [1, 12]: 6%
Phytotoxicity Chlorosis [2, 13]: 8%
Phytotoxicity General [2, 13]: 2%
Phytotoxicity Stunting [2, 13]: 5%
Phytotoxicity Chlorosis [2, 14]: 10%
Phytotoxicity General [2, 14]: 2%
Phytotoxicity Stunting [2, 14]: 13%
Phytotoxicity Chlorosis [2, 15]: 3%
Phytotoxicity General [2, 15]: 7%
Phytotoxicity Stunting [2, 15]: 10%
Phytotoxicity Chlorosis [2, 16]: 8%
Phytotoxicity General [2, 16]: 2%
Phytotoxicity Stunting [2, 16]: 10%
Phytotoxicity Chlorosis [2, 17]: 5%
Phytotoxicity General [2, 17]: 10%
Phytotoxicity Stunting [2, 17]: 8%
Phytotoxicity Chlorosis [2, 18]: 7%
Phytotoxicity General [2, 18]: 2%
Phytotoxicity Stunting [2, 18]: 12%
Alanine, Percent Increase over the Untreated Check (on a % dry matter basis) [3, 19]: −1 % check
Aspartic acid, Percent Increase over the Untreated Check (on a % dry matter basis) [3, 19]: 0 % check
Cysteine, Percent Increase over the Untreated Check (on a % dry matter basis) [3, 19]: 0 % check
Glutamic acid, Percent Increase over the Untreated Check (on a % dry matter basis) [3, 19]: 5 % check
Glycine, Percent Increase over the Untreated Check (on a % dry matter basis) [3, 19]: −4 % check
Iso-leucine, Percent Increase over the Untreated Check (on a % dry matter basis) [3, 19]: 0 % check
Leucine, Percent Increase over the Untreated Check (on a % dry matter basis) [3, 19]: 0 % check
Lysine, Percent Increase over the Untreated Check (on a % dry matter basis) [3, 19]: 6 % check
Methionine, Percent Increase over the Untreated Check (on a % dry matter basis) [3, 19]: 2 % check
Proline, Percent Increase over the Untreated Check (on a % dry matter basis) [3, 19]: −2 % check
Threonine, Percent Increase over the Untreated Check (on a % dry matter basis) [3, 19]: −2 % check
Total Amino acids, Percent Increase over the Untreated Check (on a % dry matter basis) [3, 19]: 1 % check
Total Protein, Percent Increase over the Untreated Check (on a % dry matter basis) [3, 19]: 3 % check
Valine, Percent Increase over the Untreated Check (on a % dry matter basis) [3, 19]: 1 % check
ADF, Percent Increase Over the Untreated Check (on a % dry matter basis) [3, 20]: 1 % check
Calcium, Percent Increase Over the Untreated Check (on a % dry matter basis) [3, 20]: 18 % check
Copper, Percent Increase Over the Untreated Check (on a % dry matter basis) [3, 20]: 50 % check
Iron, Percent Increase Over the Untreated Check (on a % dry matter basis) [3, 20]: 33 % check
Magnesium, Percent Increase Over the Untreated Check (on a % dry matter basis) [3, 20]: 11 % check
Manganese, Percent Increase Over the Untreated Check (on a % dry matter basis) [3, 20]: 39 % check
NDF, Percent Increase Over the Untreated Check (on a % dry matter basis) [3, 20]: −8 % check
Phosphorous, Percent Increase Over the Untreated Check (on a % dry matter basis) [3, 20]: 9 % check
Potassium, Percent Increase Over the Untreated Check (on a % dry matter basis) [3, 20]: 4 % check
Sodium, Percent Increase Over the Untreated Check (on a % dry matter basis) [3, 20]: 13 % check
Zinc, Percent Increase Over the Untreated Check (on a % dry matter basis) [3, 20]: 18 % check
ADF, Percent Increase Over the Untreated Check (on a % dry matter basis) [3, 21]: 9 % check
Calcium, Percent Increase Over the Untreated Check (on a % dry matter basis) [3, 21]: 0 % check
Copper, Percent Increase Over the Untreated Check (on a % dry matter basis) [3, 21]: 28 % check
Iron, Percent Increase Over the Untreated Check (on a % dry matter basis) [3, 21]: 3 % check
Magnesium, Percent Increase Over the Untreated Check (on a % dry matter basis) [3, 21]: 3 % check
Manganese, Percent Increase Over the Untreated Check (on a % dry matter basis) [3, 21]: 16 % check
NDF, Percent Increase Over the Untreated Check (on a % dry matter basis) [3, 21]: 1 % check
Phosphorous, Percent Increase Over the Untreated Check (on a % dry matter basis) [3, 21]: 7 % check
Potassium, Percent Increase Over the Untreated Check (on a % dry matter basis) [3, 21]: 1 % check
Sodium, Percent Increase Over the Untreated Check (on a % dry matter basis) [3, 21]: 45 % check
Zinc, Percent Increase Over the Untreated Check (on a % dry matter basis) [3, 21]: 10 % check
Alanine, Percent Increase over the Untreated Check (on a % dry matter basis) [3, 22]: 6 % check
Aspartic acid, Percent Increase over the Untreated Check (on a % dry matter basis) [3, 22]: 7 % check
Cysteine, Percent Increase over the Untreated Check (on a % dry matter basis) [3, 22]: 6 % check
Glutamic acid, Percent Increase over the Untreated Check (on a % dry matter basis) [3, 22]: 12 % check
Glycine, Percent Increase over the Untreated Check (on a % dry matter basis) [3, 22]: 3 % check
Iso-leucine, Percent Increase over the Untreated Check (on a % dry matter basis) [3, 22]: 6 % check
Leucine, Percent Increase over the Untreated Check (on a % dry matter basis) [3, 22]: 6 % check
Lysine, Percent Increase over the Untreated Check (on a % dry matter basis) [3, 22]: 11 % check
Methionine, Percent Increase over the Untreated Check (on a % dry matter basis) [3, 22]: 0 % check
Proline, Percent Increase over the Untreated Check (on a % dry matter basis) [3, 22]: 9 % check
Threonine, Percent Increase over the Untreated Check (on a % dry matter basis) [3, 22]: 4 % check
Total Amino acids, Percent Increase over the Untreated Check (on a % dry matter basis) [3, 22]: 7 % check
Total Protein, Percent Increase over the Untreated Check (on a % dry matter basis) [3, 22]: 5 % check
Valine, Percent Increase over the Untreated Check (on a % dry matter basis) [3, 22]: 7 % check
ADF, Percent Increase Over the Untreated Check (on a % dry matter basis) [4]: −12 % check
Calcium, Percent Increase Over the Untreated Check (on a % dry matter basis) [4]: 7 % check
Copper, Percent Increase Over the Untreated Check (on a % dry matter basis) [4]: 8 % check
Iron, Percent Increase Over the Untreated Check (on a % dry matter basis) [4]: 108 % check
Magnesium, Percent Increase Over the Untreated Check (on a % dry matter basis) [4]: 12 % check
Manganese, Percent Increase Over the Untreated Check (on a % dry matter basis) [4]: 28 % check
NDF, Percent Increase Over the Untreated Check (on a % dry matter basis) [4]: −8 % check
Phosphorous, Percent Increase Over the Untreated Check (on a % dry matter basis) [4]: 11 % check
Potassium, Percent Increase Over the Untreated Check (on a % dry matter basis) [4]: 12 % check
Protein, Percent Increase Over the Untreated Check (on a % dry matter basis) [4]: 20 % check
Sodium, Percent Increase Over the Untreated Check (on a % dry matter basis) [4]: 83 % check
Soluble protein, Percent Increase Over the Untreated Check (on a % dry matter basis) [4]: 196 % check
Zinc, Percent Increase Over the Untreated Check (on a % dry matter basis) [4]: 33 % check
Yield Fresh weight ([5]; rates g ai/ha: chlropyrifos 1120, chlorothalonil 2630, paclobutrazol 3.23, mepiquat-chloride 12.3, Isoxadifen 8, Napthalic anhydride 264, + NIS 0.25 % v/v): 24.6 grams
Yield Fresh weight ([5]; rates g ai/ha: chlropyrifos 3370, chlorothalonil 7900, paclobutrazol 9.7, mepiquat-chloride 37, Isoxadifen 16, Napthalic anhydride 527, + NIS 0.25 % v/v): 32.9 grams
Yield Fresh weight [6, 20]: 108.2 grams
Yield Fresh weight [6, 21]: 110.1 grams

Reference: patent publication US20110053773A1, “METHODS OF IMPROVING NUTRITIONAL VALUE OF PLANTS” (UNIVERSITY OF TENNESSEE RESEARCH FOUNDATION, priority 2009, published 2011)
